The values that follow come from patent publication US8703767B2, “Substituted N-(3-(pyrimidin-4-yl)phenyl)acrylamide analogs as tyrosine receptor kinase BTK inhibitors” (University of Utah Research Foundation, priority 2011, dated 2014).

Some results are limits rather than exact numbers.

One data set has as its system OPM2 cells. The data set is described as follows: Cell viability assay in OPM2 cells with endogenous levels of BTK. In kind it is cell-based. As to conditions: Homo sapiens, OPM-2, absence of overexpressed BTK. As to the method:
(§1) The cells were grown as described above, and for the assay cells were freshly harvested and then were plated in […] of appropriate media (as described above) at a density of 1000 cells per well in standard solid white-walled 384-well plates. Cells were allowed to attach by incubation overnight at 37° C. and 5% CO2. Test compounds were diluted to 10× concentrations in the appropriate media for the cell used (containing 3% DMSO) and […] of these dilutions were appropriate wells containing the cells. Test compounds were typically tested in triplicate (i.e. a given concentration of compound was assayed in triplicate wells). The plates containing the drug-treated cells and appropriate controls were incubated for 96 hours. At the end of the incubation, […] of ATP-lite (PerkinElmer, Inc., Waltham, Mass.) reagent were added to each well and luminescence signal was measured on an EnVision microplate reader.
(§2) The compounds were assessed in a cell-viability assay in OPM2 cells that either expressed endogenous levels of BTK or overexpressed BTK from an expression construct. […] Cell viability or proliferation was determined using the ATPLite Luminescence Assay (PerkinElmer, Inc., Waltham, Mass.); a decrease in luminescence activity correlates with a decrease in cell viability or proliferation.

Data set [1] relates to OPM2 cells overexpressing BTK. The data set is described as follows: Cell viability assay in OPM2 cells overexpressing BTK. In kind it is cell-based. As to conditions: Homo sapiens, OPM-2, presence of overexpressed BTK. The procedure:
as §1, §2

The subject of data set [2] is Tec family of kinase, as well as EGFR and ErbB4. Put plainly: Kinase profiling against a panel of 40 protein kinases. It counts as biochemical. As to conditions: 200 nM of test compound, ATP at Km apparent. The procedure:
The specificity of kinase inhibition was assessed with a representative compound, N-(3-(5-chloro-2-((4-morpholinophenyl)amino)pyrimidin-4-yl)phenyl)acrylamide, by determining the activity of this test compound against a panel of protein kinases. Kinase profiling was performed against a focus panel of kinases relevant to BTK and the Tec family of protein kinases. […] The results from this screen confirmed good activity against the Tec family of kinase, as well as EGFR and ErbB4. These later two kinases are known to have a cysteine residue in a position suitable for reaction with the Michaels acceptor of the disclosed compounds.

A further data set deals with wild-type EGFR (ErbB1) (Homo sapiens (Human), UniProt P00533). Put plainly: LanthaScreen Eu Kinase Binding Assay, wild-type EGFR. Conditions: tracer displacement. As to the method: (§3) Based on the results obtained in the foregoing experiment, representative compounds (N-(3-(5-chloro-2-((4-morpholinophenyl)amino)pyrimidin-4-yl)phenyl)acrylamide and N-(3-(6-((4-morpholinophenyl)amino)-1H-pyrazolo[3,4-d]pyrimidin-4-yl)phenyl)acrylamide) were assayed against wild-type and a mutant form (T790M) of EGFR. The compound activity against these kinases was determined using LanthaScreen™ Eu Kinase Bindng Assay (Invitrogen division of Life Technologies, Inc., Grand Island, N.Y.). The assay measures the activity of a compound to bind and displace a proprietary, Alexa Fluor® 647-labeled, ATP-competitive kinase inhibitor scaffold (kinase tracer) to EGFR.
(In general: Time-resolved FRET reads energy transfer from a long-lived donor to a nearby acceptor.)

Data set [3] can be described thus: Pharmacokinetic and bone marrow distribution study. As to conditions: CD1 mice, 5 mg/kg iv. It counts as in vivo. The procedure: To determine the ability of a disclosed compound, N-(3-(5-chloro-2-((4-morpholinophenyl)amino)pyrimidin-4-yl)phenyl)acrylamide, to partition to the bone, a pharmacokinetic study in mice was carried out and coupled with a bone marrow distribution study (see FIG. 18). Briefly, CD1 mice were dosed intravenously (“iv”) with 5 mg/kg of the test compound and three animals per time point (5 min to 8 hrs) were sacrificed. Blood (plasma) and bone marrow tissue (femur) were collected from each animal and analyzed by LC/MS for standard PK parameters. […] The baseline distribution to the bone marrow of the compound was also determined.

Data set [4] has as its target mutant form of EGFR (T790M) (Homo sapiens (Human), UniProt P00533, T790M). The data set is described as follows: LanthaScreen Eu Kinase Binding Assay, EGFR T790M. Conditions: tracer displacement. As to the method:
as §3

The target in data set [5] is recombinant full-length human BTK kinase (Homo sapiens (Human), UniProt Q06187). The data set is described as follows: BTK kinase assay: ADP generation assay. It counts as biochemical. Conditions: 60 nM BTK, 1.6 μM ATP, 20 μM MBP substrate, 60 min. As to the method:
Test compounds were diluted to desired concentrations in kinase reaction buffer and briefly incubated with recombinant full-length human BTK kinase with a (His)6 tag (81.3 kDa; Invitrogen Corporation, Carlsbad, Calif.). The assay as described is based on volumes used in a standard 384 well format using solid, white-wall plates. The reaction was subsequently initiated by the addition of ATP and myelin basic protein (MBP) substrate (Millipore Corporation, Waltham, Mass.). Composition of the assay reaction mixture ([…]) was: 5% v/v DMSO, 60 nM BTK, 1.6 μM ATP, and 20 μM MBP substrate. After incubation at room temperature for 60 min, […] (Promega Corporation, Madison, Wis.) was added to each well and incubated for an additional 40 minutes. The reagent stopped the kinase reaction and depleted the unconsumed ATP. Kinase Detection reagent ([…]; Promega Corporation) was then added to each well. The Kinase Detection reagent comprises reagents to convert ADP to ATP and provide luciferase and luciferin to detect ATP. Luminescence was measured on an EnVision microplate reader (PerkinElmer). The amount of luminescence from each reaction is directly correlated with BTK kinase activity. Percent inhibition and IC50 values were calculated by comparing enzyme activity in drug-treated wells to the appropriate controls.
(§4) IC50 values are determined using GraphPad Prism 5 software. The data were entered as an X-Y plot into the software as percent inhibition for each concentration of the drug. The concentration values of the drug were log transformed and the nonlinear regression was carried out using the “sigmoidal dose-response (variable slope)” option within the GraphPad software to model the data and calculate IC50 values. The IC50 values reported are the concentration of drug at which 50% inhibition was reached.

The next data set concerns the target BTK kinase (Homo sapiens (Human), UniProt Q06187). Put plainly: BTK kinase assay: time resolved-FRET (HTRF) assay. It counts as biochemical. Conditions: 10 nM BTK, 60 μM ATP, 1 μM substrate, 60 min. As to the method:
The secondary assay was a time resolved-FRET kinase assay. Test compound are diluted to desired concentrations in kinase reaction buffer and briefly incubated with BTK kinase (as described above; Invitrogen). The reaction is initiated by the addition of ATP and enzyme substrate, HTRF® KinEASE™-TK Substrate-biotin (Cisbio US, Bedford, Mass.). The composition of the reaction (10 μl) was: 1% v/v DMSO, 10 nM BTK, 60 μM ATP, and 1 μM substrate. After incubation at room temperature for 60 min, the enzyme reaction is stopped by EDTA-containing buffer, which also contains europium-labeled (Eu^3+-Cryptate) anti-phosphotyrosine antibody (Cisbio) and Streptavidin-XL665 (Cisbio). The europium-labeled antibody generates a time-resolved FRET signal with the Stepavidin-XL665, which binds to the biotinylated TK substrate through the streptavidin conjugate when the substrate is phosphorylated. After one hour incubation at room temperature, fluorescence was measured with excitation of 320 nm and dual emission of 615 and 665 nm on an EnVision microplate reader.
as §4

The test system of another data set is Ramos RA-1. The data set is described as follows: Cell viability assay (ATP-lite), Ramos RA-1. It counts as cell-based. Conditions: Homo sapiens, 96 hours. As to the method: (§5) All cell lines were cultured in RPMI-1640 media supplemented with 10% fetal bovine serum (“FBS”) and 1% penicillin/streptomycin (100 IU/mL penicillin and 100 μg/mL streptomycin) at 37° C. and 5% CO2. ATCC is the American Type Culture Collection (Manassas, Va.), and DSMZ is the Deutsche Sammlung von Mikroorganismen and Zellkulturen GmbH (German Collection of Microorganims and Cell Cultures; Braunschweig, Germany). The cell lines typically used in these studies are indicated below in Table II.
as §1, §4
The ability of compounds to inhibit the viability of cultured cells was determined using the cell viability assay described above. Activity data for representative compounds is shown below in Table III below for the compounds tested using the indicated cell lines (Ramos RA-1, GRANTA-519, and BxPC-3). IC50 values were determined as described above. If an IC50 is indicated as “n.d.”, it was not determined in the indicated cell line.

Another data set relates to BxPC-3. The data set is described as follows: Cell viability assay (ATP-lite), BxPC-3. In kind it is cell-based. As to conditions: Homo sapiens, 96 hours. The procedure: as §5
(§6) The cells were grown as described above, and for the assay cells were freshly harvested and then were plated in […] of appropriate media (as described above) at a density of 1000 cells per well in standard solid white-walled 384-well plates. Cells were allowed to attach by incubation overnight at 37° C. and 5% CO2. […] At the end of the incubation, […] of ATP-lite (PerkinElmer, Inc., Waltham, Mass.) reagent were added to each well and luminescence signal was measured on an EnVision microplate reader.
(§7) IC50 values are determined using GraphPad Prism 5 software. […]
(§8) The ability of compounds to inhibit the viability of cultured cells was determined using the cell viability assay described above. […] IC50 values were determined as described above. If an IC50 is indicated as “n.d.”, it was not determined in the indicated cell line.

The test system of the next data set is GRANTA-519. Put plainly: Cell viability assay (ATP-lite), GRANTA-519. It counts as cell-based. As to conditions: Homo sapiens, 96 hours. As to the method:
as §5, §6, §7, §8

recombinant full-length human BTK kinase, sequence (Q06187 whole entry): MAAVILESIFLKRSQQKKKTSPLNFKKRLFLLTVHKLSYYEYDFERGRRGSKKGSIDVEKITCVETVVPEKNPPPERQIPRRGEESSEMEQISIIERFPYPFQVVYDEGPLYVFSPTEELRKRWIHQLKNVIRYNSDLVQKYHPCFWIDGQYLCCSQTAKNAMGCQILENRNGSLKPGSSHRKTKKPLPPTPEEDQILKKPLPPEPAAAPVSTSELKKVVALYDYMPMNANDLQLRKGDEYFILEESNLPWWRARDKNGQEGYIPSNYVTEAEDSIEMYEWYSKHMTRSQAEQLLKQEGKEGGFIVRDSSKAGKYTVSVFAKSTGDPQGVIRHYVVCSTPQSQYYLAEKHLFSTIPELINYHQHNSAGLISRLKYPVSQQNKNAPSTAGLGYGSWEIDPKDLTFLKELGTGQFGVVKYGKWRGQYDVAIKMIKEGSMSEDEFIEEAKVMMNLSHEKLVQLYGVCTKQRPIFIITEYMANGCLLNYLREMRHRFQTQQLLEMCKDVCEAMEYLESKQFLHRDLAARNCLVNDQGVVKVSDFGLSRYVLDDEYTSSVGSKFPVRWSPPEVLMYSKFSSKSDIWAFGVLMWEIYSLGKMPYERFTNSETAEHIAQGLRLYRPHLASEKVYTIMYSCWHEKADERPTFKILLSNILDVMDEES
BTK kinase, sequence (Q06187 whole entry): as above
wild-type EGFR (ErbB1), sequence (P00533 25-1210): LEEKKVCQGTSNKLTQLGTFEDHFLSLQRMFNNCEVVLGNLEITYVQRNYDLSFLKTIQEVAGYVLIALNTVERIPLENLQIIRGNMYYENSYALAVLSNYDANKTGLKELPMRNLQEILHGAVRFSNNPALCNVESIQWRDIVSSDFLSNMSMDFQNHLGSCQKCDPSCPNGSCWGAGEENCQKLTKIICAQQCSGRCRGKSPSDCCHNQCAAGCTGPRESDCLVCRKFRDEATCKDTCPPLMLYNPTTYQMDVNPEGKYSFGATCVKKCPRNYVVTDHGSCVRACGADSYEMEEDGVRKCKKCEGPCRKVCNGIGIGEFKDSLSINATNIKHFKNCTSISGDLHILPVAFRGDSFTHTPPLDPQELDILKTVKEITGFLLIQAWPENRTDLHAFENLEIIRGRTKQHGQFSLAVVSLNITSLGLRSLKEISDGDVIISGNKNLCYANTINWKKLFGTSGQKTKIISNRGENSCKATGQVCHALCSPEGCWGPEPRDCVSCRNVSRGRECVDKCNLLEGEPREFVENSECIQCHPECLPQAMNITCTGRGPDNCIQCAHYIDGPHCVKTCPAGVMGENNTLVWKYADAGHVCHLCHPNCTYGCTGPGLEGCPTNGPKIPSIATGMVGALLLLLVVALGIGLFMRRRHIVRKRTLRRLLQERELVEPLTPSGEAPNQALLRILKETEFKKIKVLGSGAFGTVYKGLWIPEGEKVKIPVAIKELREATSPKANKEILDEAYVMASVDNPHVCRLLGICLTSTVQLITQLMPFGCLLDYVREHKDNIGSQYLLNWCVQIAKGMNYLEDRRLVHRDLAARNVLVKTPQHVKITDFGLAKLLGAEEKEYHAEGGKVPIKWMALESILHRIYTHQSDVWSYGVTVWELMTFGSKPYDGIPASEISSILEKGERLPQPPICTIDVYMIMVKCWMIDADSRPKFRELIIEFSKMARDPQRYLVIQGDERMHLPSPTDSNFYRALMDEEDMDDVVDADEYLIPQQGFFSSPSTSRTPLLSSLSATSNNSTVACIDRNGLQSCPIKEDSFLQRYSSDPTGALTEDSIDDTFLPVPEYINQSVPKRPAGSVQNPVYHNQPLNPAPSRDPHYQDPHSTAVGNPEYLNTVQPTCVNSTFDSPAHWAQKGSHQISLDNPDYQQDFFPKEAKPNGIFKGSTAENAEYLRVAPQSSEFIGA
mutant form of EGFR (T790M), sequence (P00533 25-1210 T790M): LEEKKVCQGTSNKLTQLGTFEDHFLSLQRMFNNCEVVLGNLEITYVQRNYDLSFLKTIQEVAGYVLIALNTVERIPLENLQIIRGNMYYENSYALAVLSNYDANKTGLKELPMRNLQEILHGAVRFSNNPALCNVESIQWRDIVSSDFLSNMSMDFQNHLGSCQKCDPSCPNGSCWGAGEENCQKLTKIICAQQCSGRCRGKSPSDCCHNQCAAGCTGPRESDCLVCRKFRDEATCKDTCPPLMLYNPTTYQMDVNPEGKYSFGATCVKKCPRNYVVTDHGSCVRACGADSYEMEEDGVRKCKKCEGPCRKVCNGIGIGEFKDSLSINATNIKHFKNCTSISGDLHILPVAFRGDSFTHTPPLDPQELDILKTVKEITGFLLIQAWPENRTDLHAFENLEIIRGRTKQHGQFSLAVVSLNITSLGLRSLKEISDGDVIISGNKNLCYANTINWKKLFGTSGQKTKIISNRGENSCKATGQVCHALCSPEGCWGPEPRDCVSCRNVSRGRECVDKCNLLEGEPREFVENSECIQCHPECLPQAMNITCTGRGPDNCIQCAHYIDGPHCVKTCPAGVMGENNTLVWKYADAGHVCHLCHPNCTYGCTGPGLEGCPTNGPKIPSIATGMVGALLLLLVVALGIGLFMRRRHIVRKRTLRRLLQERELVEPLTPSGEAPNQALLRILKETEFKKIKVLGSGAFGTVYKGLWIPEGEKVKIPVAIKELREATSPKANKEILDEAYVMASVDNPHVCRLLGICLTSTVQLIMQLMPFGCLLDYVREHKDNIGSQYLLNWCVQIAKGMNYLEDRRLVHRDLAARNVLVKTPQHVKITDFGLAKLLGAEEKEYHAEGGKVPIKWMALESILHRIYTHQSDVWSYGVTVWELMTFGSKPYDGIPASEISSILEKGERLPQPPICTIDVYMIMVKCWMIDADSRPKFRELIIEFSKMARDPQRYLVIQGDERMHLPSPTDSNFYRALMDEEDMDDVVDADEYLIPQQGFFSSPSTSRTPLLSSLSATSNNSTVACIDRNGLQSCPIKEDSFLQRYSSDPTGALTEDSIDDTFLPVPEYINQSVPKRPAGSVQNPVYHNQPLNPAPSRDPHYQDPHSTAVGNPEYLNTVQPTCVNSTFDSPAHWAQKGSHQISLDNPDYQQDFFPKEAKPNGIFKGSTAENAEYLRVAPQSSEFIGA

The compound `C=CC(=O)Nc1cccc(-c2nc(Nc3ccc(N4CCOCC4)cc3)ncc2Cl)c1` [N-(3-(5-chloro-2-((4-morpholinophenyl)amino)pyrimidin-4-yl)phenyl)acrylamide] displayed an IC50 in the data set with OPM2 cells of roughly 5050 nM. Also, the IC50 in data set [1] was roughly 586 nM. Moreover, the “percent inhibition in kinase profiling” value in data set [2] is listed as “good activity”. On wild-type EGFR (ErbB1), the IC50 was 253 nM. Moreover, in data set [3], the “dwell time, bone marrow compared to plasma” value is recorded as “higher in the bone marrow compared to plasma”; the plasma concentrations entry is reported as “high plasma concentrations”; the “time after which compound cleared in the elimination phase” value is greater than 10 min. In addition, the fold lower concentration in bone marrow than in plasma in [3] (mouse, bone marrow (femur) versus plasma, read-out: concentration in bone marrow compartment compared to plasma levels (fold less)) was roughly 50. The compound further returned a half-life in data set [3] (mouse, plasma) of roughly 45 min.

For the compound `C=CC(=O)Nc1cccc(-c2nc(Nc3ccc(N4CCOCC4)cc3)nc3[nH]ncc23)c1` [N-(3-(6-((4-morpholinophenyl)amino)-1H-pyrazolo[3,4-d]pyrimidin-4-yl)phenyl)acrylamide], the IC50 on wild-type EGFR (ErbB1) came to 105 nM; in data set [4] it was 2.67 nM.

For the compound `C=CC(=O)Nc1cccc(-c2nc(Nc3ccc(N4CCOCC4)cc3)nc3[nH]ncc23)c1` [compound 1], the IC50 was 0.079 µM in [5], 0.045 µM on BTK kinase, greater than 30 µM with Ramos RA-1 and 7 µM with BxPC-3.

`C=CC(=O)Nc1cccc(-c2nc(Nc3ccc(N4CCN(C)CC4)cc3)nc3[nH]ncc23)c1` [compound 2]: the concentration for half-maximal inhibition (IC50) with Ramos RA-1 was found to be 18.8 µM; in the data set with GRANTA-519, 13.7 µM.

For the compound `C=CC(=O)Nc1cccc(-c2nc(Nc3ccc(N4CCOCC4)c(F)c3)nc3[nH]ncc23)c1` [compound 3], the IC50 in data set [5] is 0.23 µM; against BTK kinase, 0.126 µM.

As to `C=CC(=O)Nc1cccc(-c2nc(Cl)nc3[nH]ncc23)c1` [compound 4], the IC50 in [5] was 0.263 µM; at BTK kinase, 3.77 µM; with Ramos RA-1 it was greater than 30 µM; in the data set with GRANTA-519, greater than 30 µM.

For `C=CC(=O)Nc1cccc(-c2nc(Cl)ncc2Nc2ccccc2)c1` [compound 5], the IC50 in data set [5] is 1.81 µM.

For `C=CC(=O)Nc1cccc(-c2nc(Nc3ccc(N4CCOCC4)cc3)ncc2Nc2ccccc2)c1` [compound 6], in [5], the IC50 is greater than 100 µM.

`C=CC(=O)Nc1cccc(-c2nc(Nc3ccc(N4CCOCC4)c(F)c3)ncc2Cl)c1` [compound 7]: the IC50 in [5] is 0.518 µM; against BTK kinase, 0.287 µM.

As for `C=CC(=O)Nc1cccc(-c2nc(Nc3ccc(N4CCOCC4)cc3)ncc2Cl)c1` [compound 8], the IC50 in data set [5] turned out to be 0.033 µM; against BTK kinase it was 0.047 µM; in the data set on Ramos RA-1, 20.9 µM; with BxPC-3, 22.2 µM.

Regarding `C=CC(=O)Nc1cccc(-c2nc(Nc3ccc(N4CCN(C)CC4)cc3)ncc2Cl)c1` [compound 9], the 50% inhibitory concentration (IC50) in data set [5] turned out to be 1.27 µM.

On to `C=CC(=O)Nc1cccc(-c2nc(Cl)ncc2Br)c1` [compound 10], for which, in data set [5], the IC50 came out at 4.7 µM.

As for `C=CC(=O)Nc1cccc(-c2nc(Cl)ncc2Cl)c1` [compound 11], the concentration for half-maximal inhibition (IC50) in [5] amounted to 14.4 µM.

For `C=CC(=O)Nc1cccc(-c2nc(Cl)ncc2Nc2cccc(F)c2)c1` [compound 12], in data set [5], the IC50 stood at 0.829 µM.

The term IC50 denotes the concentration needed to halve the response being measured. The half-life is how long it takes for the measured level to halve. Low values mean fast loss, high ones slow loss.
